What all share (assay type): in vivo
For assay [1], the system named is larvae of the banded cucumber beetle (Diabrotica balteata). The assay can be described thus: Diabrotica balteata spray test. The note with it: 168 h, after 7 days, read-out: efficacy (seedling growth); for pest or weed control at 6.4 µg/disc, 20 g/ha: 20 g/ha (=6.4 μg/well); for pest or weed control at 32 µg/disc, 100 g/ha: 100 g/ha (=32 μg/well). The protocol: Diabrotica balteata—Spray Test
Solvent: 78.0 parts by weight of acetone • • 1.5 parts by weight of dimethylformamide
(§1) Emulsifier: alkylarylpolyglycol ether
To produce a suitable preparation of active compound, 1 part by weight of active compound is mixed with the stated amount of solvent, and the concentrate is diluted with water, containing an emulsifier concentration of 1000 ppm, to the desired concentration. Further test concentrations are prepared by dilution with emulsifier containing water.
Soaked wheat seeds (Triticum aestivum) are placed in a multiple well plate filled with agar and some water and are incubated for 1 day to germinate (5 seeds per well). The germinated wheat seeds are sprayed with a test solution containing the desired concentration of the active ingredient. Afterwards each unit is infected with 10-20 larvae of the banded cucumber beetle (Diabrotica balteata).
After 7 days efficacy in % is determined. 100% means all the seedlings have grown up like in the untreated, uninfected control; 0% means none of the seedlings have grown.

Assay [2] relates to Rhipicephalus (Boophilus) microplus larvae (strain Parkhurst, resistant against synthetic pyrethroids). The assay can be described thus: Rhipicephalus (Boophilus) microplus in-vitro contact test, larval cattle tick. The note with it: after 48 hours, read-out: efficacy (larvae dead or moribund); for pest or weed control at 1 µg/cm2, 100 g/ha: 1 μg/cm^2 (=100 g/ha); for pest or weed control at 5 µg/cm2, 500 g/ha: 5 μg/cm^2 (=500 g/ha). The protocol: Rhipicephalus (Boophilus) microplus—In-Vitro Contact Tests Larval Cattle Tick (Strain Parkhurst, Resistant Against Synthetic Pyrethroids)
9 mg compound is solved in 1 mL acetone and diluted with acetone to the desired concentration. […] the test solution is filled in 25 mL glass test tubes and homogeneously distributed on the inner walls by rotation and tilting on a shaking device (2 h at 30 rpm). With a compound concentration of 900 ppm, an inner surface of 44.7 cm^2 and a homogeneous distribution, a dose of 5 μg/cm^2 is achieved.
After the solvent has evaporated, each test tube is filled with 20-50 cattle tick larvae (Rhipicephalus microplus), closed with a perforated lid and incubated in a horizontal position at 85% relative humidity and 27° C. in an incubator. After 48 hours efficacy is determined. The larvae are patted on the ground of the tubes and negative geotactic behaviour is recorded.
An efficacy of 100% means all larvae are dead or moribund; 0% means no larvae are dead or moribund.

Assay [3] relates to fall armyworm larvae (Spodoptera frugiperda). The assay can be described thus: Spodoptera frugiperda spray test. The note with it: 168 h, maize leaf sections, after 7 days. The method, then:
Spodoptera fruaiperda—Spray Test
Solvent: 78.0 parts by weight acetone • 1.5 parts by weight dimethylformamide
as §1
To produce a suitable preparation of active compound, 1 part by weight of active compound is mixed with the stated amount of solvents and is diluted with water, containing an emulsifier concentration of 1000 ppm, to the desired concentration. Further test concentrations are prepared by dilution with emulsifier containing water.
Maize (Zea mays) leaf sections are sprayed with a preparation of the active ingredient of the desired concentration. Once dry, the leaf sections are infested with fall armyworm larvae (Spodoptera frugiperda).
After 7 days mortality in % is determined. 100% means all caterpillars have been killed and 0% means none of the caterpillars have been killed.

A word on the mortality: it is the share of the test organisms that died. As to `CC(NC(=O)c1cc(C#N)cc(C(F)(F)F)c1)c1nccnc1-n1cc(C#N)cn1` (racemic) [Example I-115, (rac)-3-Cyano-N-{1-[3-(4-cyano-1H-pyrazol-1-yl)pyrazin-2-yl]ethyl}-5-(trifluoromethyl)benzamide], in assay [1], the pest or weed control at 6.4 µg/disc, 20 g/ha came out at 100% and the pest or weed control at 32 µg/disc, 100 g/ha was 100%. In assay [2], the pest or weed control at 1 µg/cm2, 100 g/ha stood at 100% and the pest or weed control at 5 µg/cm2, 500 g/ha was 100%. The mortality at 100 g/ha in assay [3] turned out to be 100%.
As for `CC(NC(=O)c1cc(C#N)cc(OC(F)(F)F)c1)c1nccnc1-n1cc(C#N)cn1` (racemic) [Example I-116, (rac)-3-Cyano-N-{1-[3-(4-cyano-1H-pyrazol-1-yl)pyrazin-2-yl]ethyl}-5-(trifluoromethoxy)benzamide], in assay [1], the pest or weed control at 6.4 µg/disc, 20 g/ha is 100% and the pest or weed control at 32 µg/disc, 100 g/ha turned out to be 100%. In assay [2], the pest or weed control at 1 µg/cm2, 100 g/ha stood at 90% and the pest or weed control at 5 µg/cm2, 500 g/ha stood at 100%. Also, the mortality at 100 g/ha in assay [3] worked out at 100%.
With `CC(NC(=O)c1cc(Br)cc(OC(F)(F)F)c1)c1nccnc1-c1ccc(Cl)cn1` (stereo not drawn) [Example I-22], in assay [1], the pest or weed control at 6.4 µg/disc, 20 g/ha is 100% and the pest or weed control at 32 µg/disc, 100 g/ha was found to be 100%. The compound further showed a mortality at 100 g/ha in assay [3] of 100%.
Regarding `CC(NC(=O)c1cc(C(F)(F)F)cc(C(F)(F)F)c1)c1nccnc1-n1cc(C(F)(F)F)cn1` (racemic) [Example I-92, (rac)-3,5-Bis(trifluoromethyl)-N-[1-{3-[4-(trifluoromethyl)-1H-pyrazol-1-yl]pyrazin-2-yl}ethyl]benzamide], in assay [1], the pest or weed control at 6.4 µg/disc, 20 g/ha was determined as 100% and the pest or weed control at 32 µg/disc, 100 g/ha amounted to 100%. Moreover, in assay [2], the pest or weed control at 1 µg/cm2, 100 g/ha was determined as 100% and the pest or weed control at 5 µg/cm2, 500 g/ha is 100%. Further, in assay [3], the mortality at 100 g/ha was found to be 100%.
As for `CC(NC(=O)c1cc(Cl)cc(S(C)(=O)=O)c1)c1nccnc1-c1ncc(C(=O)N(C)CC#N)s1` (racemic) [Example I-77, (rac)-2-(3-{1-[3-Chloro-5-(methanesulfonyl)benzamido]ethyl}pyrazin-2-yl)-N-(cyanomethyl)-N-methyl-1,3-thiazole-5-carboxamide], in assay [1], the pest or weed control at 32 µg/disc, 100 g/ha was found to be 100%. The same compound showed a mortality at 100 g/ha in assay [3] of 100%.
Turning to `CC(NC(=O)c1cc(Br)cc(OC(F)(F)F)c1)c1nccnc1-n1cc(C#N)cn1` (racemic) [Example I-102, (rac)-3-Bromo-N-{1-[3-(4-cyano-1H-pyrazol-1-yl)pyrazin-2-yl]ethyl}-5-(trifluoromethoxy)benzamide], in assay [1], the pest or weed control at 6.4 µg/disc, 20 g/ha amounted to 100% and the pest or weed control at 32 µg/disc, 100 g/ha came out at 100%. For the same compound, in assay [2], the pest or weed control at 1 µg/cm2, 100 g/ha amounted to 90% and the pest or weed control at 5 µg/cm2, 500 g/ha was 90%. In assay [3], the mortality at 100 g/ha came out at 100%.
As for `CC(NC(=O)c1cc(C(F)(F)F)cc(C(F)(F)F)c1)c1nccnc1-n1cc(C#N)cn1` (racemic) [Example I-100, N-{(rac)-1-[3-(4-Cyano-1H-pyrazol-1-yl)pyrazin-2-yl]ethyl}-3,5-bis(trifluoromethyl)benzamide], in assay [1], the pest or weed control at 6.4 µg/disc, 20 g/ha was 100% and the pest or weed control at 32 µg/disc, 100 g/ha came to 100%. In assay [2], the pest or weed control at 1 µg/cm2, 100 g/ha was determined as 100% and the pest or weed control at 5 µg/cm2, 500 g/ha was 100%. In assay [3], this compound showed a mortality at 100 g/ha of 100%.
For the compound `CC(NC(=O)c1cc(Cl)cc(C(F)(F)F)c1)c1nccnc1-n1cc(C#N)cn1` (racemic) [Example I-105, (rac)-3-Chloro-N-{1-[3-(4-cyano-1H-pyrazol-1-yl)pyrazin-2-yl]ethyl}-5-(trifluoromethyl)benzamide], the pest or weed control at 32 µg/disc, 100 g/ha in assay [1] came out at 100%. Moreover, the mortality at 100 g/ha in assay [3] stood at 100%.
Take `CC(NC(=O)c1cc(C(F)(F)F)cc(C(F)(F)F)c1)c1nccnc1-c1ncc(C(=O)N(C)C)s1` (racemic) [Example I-69, (rac)-2-(3-{1-[3,5-Bis(trifluoromethyl)benzamido]ethyl}pyrazin-2-yl)-N,N-dimethyl-1,3-thiazole-5-carboxamide]: in assay [1], the pest or weed control at 6.4 µg/disc, 20 g/ha is 100% and the pest or weed control at 32 µg/disc, 100 g/ha was found to be 100%. In addition, in assay [2], the pest or weed control at 1 µg/cm2, 100 g/ha is 100% and the pest or weed control at 5 µg/cm2, 500 g/ha came out at 100%. In assay [3], this compound had a mortality at 100 g/ha of 100%.
`CCN(C)C(=O)c1cnn(-c2nccnc2C(C)NC(=O)c2cc(C(F)(F)F)cc(C(F)(F)F)c2)c1` (racemic) [Example I-89, (rac)-1-(3-{1-[3,5-Bis(trifluoromethyl)benzamido]ethyl}pyrazin-2-yl)-N-ethyl-N-methyl-1H-pyrazole-4-carboxamide]: in assay [1], the pest or weed control at 6.4 µg/disc, 20 g/ha came to 100% and the pest or weed control at 32 µg/disc, 100 g/ha was 100%. In assay [2], the pest or weed control at 1 µg/cm2, 100 g/ha turned out to be 100% and the pest or weed control at 5 µg/cm2, 500 g/ha was 100%. Moreover, the mortality at 100 g/ha in assay [3] amounted to 100%.
As for `CC(NC(=O)c1cc(C#N)cc(C(F)(F)F)c1)c1nccnc1-c1ccc(C(F)(F)F)cn1` (racemic) [Example I-41, (rac)-3-Cyano-5-(trifluoromethyl)-N-[1-{3-[5-(trifluoromethyl)pyridin-2-yl]pyrazin-2-yl}ethyl]benzamide], the pest or weed control at 6.4 µg/disc, 20 g/ha in assay [1] worked out at 100%. In addition, the mortality at 100 g/ha in assay [3] is 83%.
On to `CC(NC(=O)c1cc(Br)cc(C#N)c1)c1nccnc1-n1cc(Cl)cn1` (racemic) [Example I-98, (rac)-3-Bromo-N-{1-[3-(4-chloro-1H-pyrazol-1-yl)pyrazin-2-yl]ethyl}-5-cyanobenzamide], for which, in assay [1], the pest or weed control at 6.4 µg/disc, 20 g/ha came to 100% and the pest or weed control at 32 µg/disc, 100 g/ha is 100%. In assay [3], the mortality at 100 g/ha was found to be 100%.
Regarding `CC(NC(=O)c1cc(Br)cc(OC(F)(F)F)c1)c1nccnc1-c1ncc(C(=O)N(C)CC#N)s1` (racemic) [Example I-75, (rac)-2-(3-{1-[3-Bromo-5-(trifluoromethoxy)benzamido]ethyl}pyrazin-2-yl)-N-(cyanomethyl)-N-methyl-1,3-thiazole-5-carboxamide], the pest or weed control at 32 µg/disc, 100 g/ha in assay [1] was determined as 100%. Further, in assay [2], the pest or weed control at 1 µg/cm2, 100 g/ha came to 90% and the pest or weed control at 5 µg/cm2, 500 g/ha was determined as 90%. For the same compound, in assay [3], the mortality at 100 g/ha is 100%.
On to `CC(NC(=O)c1cc(Br)cc(C(F)(F)F)c1)c1nccnc1-n1cc(C#N)cn1` (racemic) [Example I-113, (rac)-3-Bromo-N-{1-[3-(4-cyano-1H-pyrazol-1-yl)pyrazin-2-yl]ethyl}-5-(trifluoromethyl)benzamide], for which, in assay [1], the pest or weed control at 6.4 µg/disc, 20 g/ha came out at 100% and the pest or weed control at 32 µg/disc, 100 g/ha turned out to be 100%. Moreover, in assay [2], the pest or weed control at 1 µg/cm2, 100 g/ha was found to be 100% and the pest or weed control at 5 µg/cm2, 500 g/ha worked out at 100%. Also, the mortality at 100 g/ha in assay [3] worked out at 100%.
With `CCN(C)C(=O)c1cnc(-c2nc(C)cnc2C(C)NC(=O)c2cc(C(F)(F)F)cc(C(F)(F)F)c2)s1` (racemic) [Example I-152, (rac)-2-(3-{1-[3,5-Bis(trifluoromethyl)benzamido]ethyl}-6-methylpyrazin-2-yl)-N-ethyl-N-methyl-1,3-thiazole-5-carboxamide], in assay [1], the pest or weed control at 6.4 µg/disc, 20 g/ha turned out to be 100% and the pest or weed control at 32 µg/disc, 100 g/ha is 100%. For the same compound, the mortality at 100 g/ha in assay [3] is 100%.
For the compound `CCN(C)C(=O)c1ccc(-c2nccnc2C(C)NC(=O)c2cc(Cl)cc(OC(F)(F)F)c2)nc1` (racemic) [Example I-36, (rac)-6-(3-{1-[3-Chloro-5-(trifluoromethoxy)benzamido]ethyl}pyrazin-2-yl)-N-ethyl-N-methylpyridine-3-carboxamide], the pest or weed control at 32 µg/disc, 100 g/ha in assay [1] was determined as 100%. In assay [3], this compound registered a mortality at 100 g/ha of 100%.
`CC(NC(=O)c1cc(C(F)(F)F)cc(C(F)(F)F)c1)c1nccnc1-c1ncc(C(=O)N(C)CC#N)s1` (racemic) [Example I-67, (rac)-2-(3-{1-[3,5-Bis(trifluoromethyl)benzamido]ethyl}pyrazin-2-yl)-N-(cyanomethyl)-N-methyl-1,3-thiazole-5-carboxamide]: the pest or weed control at 32 µg/disc, 100 g/ha in assay [1] is 100%. The compound also came in with a mortality at 100 g/ha in assay [3] of 100%.

For the origin of these results see patent US12583851B2, “Heteroaryl-substituted pyrazine derivatives as pesticides” (Elanco Animal Health GmbH, priority 2019, dated 2026).
